These results are taken from patent EP0960886B1, “Peptide T and related peptides in the treatment of inflammation, including multiple sclerosis” (priority 1992, dated 1993).

Assay [1] can be described thus: Treatment of multiple sclerosis patients, case reports (Examples 1 to 4). The assay is classed as in vivo, human. The protocol: […] They were treated with prednisone and later with physiotherapy, with little effect. […] Tone was increased in both lower limbs and they had bilateral ankle clonus. Deep tendon reflexes were 2+ in the arms, 3+ in both knees and ankles and the plantar responses were extensor.
They were started on Peptide T, 8.5 mg subcutaneously daily. […] Their frequency of nocturia was reduced, fine motor control improved, stuttering decreased, their legs were less spastic and they could stand with minimal support. […] The patient has remained stable rather than following their normal progressive downhill course for the months they have remained on Peptide T.
A person was diagnosed with optic neuritis secondary to multiple sclerosis after presenting with numbness, impaired motor function, and blurred vision (20/300 bilaterally). Their somatic neurological examination was within normal limits. Minor episodes of numbness and impaired speech, balance and co-ordination had occurred over 6 months, as well as headache and loss of vision.
Peptide T therapy was started.
A person with their first episode of multiple sclerosis as manifest by optic neuritis and complete blindness in the right eye for 2 weeks, numbness in their right leg and then both legs. […] They had worsening of their ataxias with blurred vision and oscillopsia and was given prednisone 80 mg per day. […] Findings were typical of demyelination consistent with MS. […] The tone was increased in their lower limbs and they had non-sustained ankle clonus bilaterally. Their knee jerk was increased on the right compared to the left. Plantar responses were both upgoing. They had decreased position, vibration, light touch and cold sensation in the feet compared to the hands.
About 2 months later the patient was started on Peptide T 8.5 mg subcutaneously daily. […] They experienced improved feelings in their fingers, fine movements of their hands and improved cognitive function.
A person with a history of dizziness, ataxia, episodes of vertigo, impairment of motor function and generalised weakness of the legs was treated with dilantin and admitted to hospital. […] They were reassessed about 2 years later for episodes of dizziness, and complaints of leg spasms. […] Plantar response was downgoing and they had upwards gaze vertical nystagmus as previously noted.

In assay [2] the test system is PBMC. The assay can be described thus: Antigen (measles, mumps and rubella vaccine) induced PBMC proliferation (Example 11). The assay is classed as cell-based, human. As to conditions: without Peptide T 3.26 ± 0.55. The protocol:
PBMC were incubated as described in relation to Table III in Example 9 in the presence of live, attenuated measles, mumps and rubella vaccine (Merck Sharp and Dohme, Canada) at a final dilution of 1:20. Peptide T was added either on day 1 of incubation or on a daily basis. Results are expressed as a proliferation index ± standard deviation.

Assay [3] relates to Jurkat. The experiment in a line: Growth of spontaneously proliferating cell line Jurkat. The assay is classed as cell-based. As to conditions: p56^lck positive human T cell line. From the text:
Molt-4 is a human T lymphoma cell line, p56^lck negative, and Jurkat is a human T cell line, p56^lck positive, that will grow spontaneously in the absence of exogenous stimuli.

Regarding `C[C@@H](N)C(=O)N[C@@H](CO)C(=O)N[C@H](C(=O)N[C@H](C(=O)N[C@H](C(=O)N[C@@H](CC(N)=O)C(=O)N[C@@H](Cc1ccc(O)cc1)C(=O)N[C@H](C(N)=O)[C@@H](C)O)[C@@H](C)O)[C@@H](C)O)[C@@H](C)O` [Peptide T, D-Ala-Ser-Thr-Thr-Thr-Asn-Tyr-Thr-NH2], the “intellectual and motor functioning” value in assay [1] (Example 1: person with MS, 8.5 mg subcutaneously daily, within a few weeks, sustained over 6 months) was “marked symptomatic improvement”. Also, the visual acuity bilaterally in assay [1] (Example 2: person, optic neuritis secondary to MS, six days after start, before therapy 20/300 bilaterally) is recorded as 21/30. Further, the “fatigue, ataxia and fine motor function after restarting” value in assay [1] (Example 3: after stopping and restarting Peptide T) was “remarkable improvement”. The “patient-reported symptoms after start of therapy” value in assay [1] (Example 3: person with MS, 8.5 mg subcutaneously daily, within 1 to 2 weeks) was “subjective improvement”. Besides, in assay [1] (Example 4: person, 8.5 mg subcutaneously daily, within 10 days), the patient-reported symptoms entry is “increased energy and intellectual function, and improved vision”. In addition, the “Proliferation Index ± S.D.” value in assay [2] (Peptide T added Daily, 10^-7 Mol/L) worked out at 1.83 ± 0.36; in assay [2] (Peptide T added Daily, 10^-9 Mol/L), 0.98 ± 0.16; in assay [2] (Peptide T added Daily, 10^-11 Mol/L), 1.56 ± 0.14; in assay [2] (Peptide T added Daily, 10^-13 Mol/L) it was 1.38 ± 0.51; in assay [2] (Peptide T added Daily, 10^-15 Mol/L) it was 1.56 ± 0.61; in assay [2] (Peptide T added Daily, 10^-17 Mol/L), 1.60 ± 0.60. In addition, the “Proliferation Index ± S.D.” value came to 2.27 ± 1.09 in assay [2] (Peptide T added Daily, 10^-19 Mol/L); 4.02 ± 0.78 in assay [2] (Peptide T added Day 1, 10^-7 Mol/L); 1.91 ± 0.46 in assay [2] (Peptide T added Day 1, 10^-9 Mol/L); 5.35 ± 1.46 in assay [2] (Peptide T added Day 1, 10^-11 Mol/L); 5.46 ± 1.37 in assay [2] (Peptide T added Day 1, 10^-13 Mol/L); 5.56 ± 0.60 in assay [2] (Peptide T added Day 1, 10^-15 Mol/L). The “Proliferation Index ± S.D.” value was found to be 3.99 ± 0.18 in assay [2] (Peptide T added Day 1, 10^-17 Mol/L) and 6.15 ± 2.59 in assay [2] (Peptide T added Day 1, 10^-19 Mol/L). Moreover, the “growth of Jurkat cell line” value in assay [3] was “did not significantly affect”.
